Results on 25 compounds are retold here after patent US4983740A, “Process for 1,4-dihydropyridine compounds” (Adir et Compagnie, priority 1986, dated 1991).

Usually pIC50 stands for −log10 of the IC50, conventionally taken in molar units.

pIC50: −log10 of the molar value. Counter-ions that a name gives are not always drawn.

This assay deals with rat aorta. As to the kind of experiment: In vitro activity in rat aorta stimulated by potassium ions. The format is cell-based, rat (male Wistar). Particulars: 1 h; rat aorta rings, KCl 80 mM stimulation, cumulative doses at 60 minutes intervals. The method, then: Determination of the Vitro Activity in Rat Aorta Stimulated by Potassium Ions
This trial was carried out using isolated organs removed from male Wistar rats weighing 300 to 400 g, kept under a water diet 18 hours before sacrificing.
After quickly sacrificing the animal, the aorta (at the level of the arch of the aorta) is removed and dissected into 2 mm-long rings; the endothelium is removed mechanically. After an equilibration period of 1 hour in a physiological solution consisting of (mM): NaCl 112, KCl 5, KH2 PO4 1, MgSO4 1.2, CaCl2 2.5, NaHCO3 25 and glucose 11.5, the preparations are stimulated with a potassium-rich solution. The latter consists of (mM):NaCl 37, KCl 80, KH2 PO4 1, MgSO4 1.2, CaCl2 2.5, NaHCO3 25 and glucose 11.5. This solution has a pH of 7.4 at 37° C.
After 15 minutes of stabilization, the compounds to be tested are then added (sample volume 0.2 ml) at cumulative doses at 60 minutes intervals. From the relaxation values obtained, it is possible to construct a doseresponse curve, leading to the calculation of an IC50 value (expressed in M).
The compound `CCOC(=O)C1=C(COCCCOCCCN)NC(C)=C(C(=O)OC)C1c1c(F)c(F)c(F)c(F)c1F` (racemic) [EXAMPLE 24, (4R,S)-2-{[3-(3-Aminopropoxy)propoxy]methyl}-3-ethoxycarbonyl-5-methoxycarbonyl-4-pentafluorophenyl-1,4-dihydropyridine tartrate] gave a pIC50 of 9.09.
The figure for `CCOC(=O)C1=C(C)NC(COCCOCCN)=C(C(=O)OC)C1c1c(F)c(F)c(F)c(F)c1F` (racemic) [EXAMPLE 20, (4R,S)-2-{[2-(2-Aminoethoxy)ethoxy]methyl}-5-ethoxycarbonyl-3-methoxycarbonyl-6-methyl-4-pentafluorophenyldihydropyridine tartrate] is 7.59; for `COC(=O)C1=C(C)NC(COCCOCCN)=C(C(=O)OCC(C)C)C1c1cccc(Cl)c1Cl` (racemic) [EXAMPLE 28, (4R,S)-2-{[2-(2-Aminoethoxy)ethoxy]methyl}-4-(2,3-dichlorophenyl)-3-isobutyloxycarbonyl-5-methoxycarbonyl-6-methyl-1,4-dihydropyridine fumarate] it is 8.03.
For the compound `CCOC(=O)C1=C(COCCOCCN)NC(COC)=C(C(=O)OC)C1c1cccc(Cl)c1Cl` (racemic) [EXAMPLE 10, (4R,S)-2-{[2-(2-Aminoethoxy)ethoxy]methyl}-4-(2,3-dichlorophenyl)-3-ethoxycarbonyl-5-methoxycarbonyl-6-methoxymethyl-1,4-dihydropyridine], the pIC50 was 7.05.
The figure for `COC(=O)C1=C(C)NC(CCCCCCCN)=C(C(=O)OCC(C2CC2)C2CC2)C1c1ccccc1Cl` (racemic) [EXAMPLE 13, (4R,S)-2-(7-Aminoheptyl)-4-(2-chlorophenyl)-3-(2,2-dicyclopropylethoxycarbonyl)-5-methoxycarbonyl-6-methyl-1,4-dihydropyridine fumerate] is 6.52.
The figure for `COC(=O)C1=C(C)NC(COCCOCCN)=C(C(=O)OC/C=C/C(C2CC2)C2CC2)C1c1cccc(C(F)(F)F)c1Cl` [EXAMPLE 37, (4R,S)-2-{[2-(2-Aminoethoxy)ethoxy]methyl}-4-(2-chloro-3-trifluoromethylphenyl)-3-{[(E)-4,4-dicyclopropyl-2-butene]oxycarbonyl}-5-methoxycarbonyl-6-methyl-1,4-dihydropyridine fumarate] is 6.46; for `COC(=O)C1=C(C)NC(COCCOCCN)=C(C(=O)OC)C1c1c(F)c(F)c(F)c(F)c1F` (racemic) [EXAMPLE 19, (4R,S)-2-{[2-(2-Aminoethoxy)ethoxy]methyl}-3,5-dimethoxycarbonyl-6-methyl-4-pentafluorophenyldihydropyridine tartrate] it is 8.31; for `CCOC(=O)C1=C(COCCCOCCCN)NC(C)=C(C(=O)OC)C1c1cccc(C(F)(F)F)c1SC` (racemic) [EXAMPLE 30, (4R,S)-2-{[3-(3-Aminopropoxy)propoxy]methyl}-3-ethoxycarbonyl-5-methoxycarbonyl-6-methyl-4-(2-methylthio-3-trifluoromethylphenyl)-1,4-dihydropyridine fumarate] it is 7.60.
The figure for `CCOC(=O)C1=C(COCCOCCN)NC(C)=C(C(=O)OC)C1c1ccccc1C(F)(F)F` (racemic) [EXAMPLE 17, (4R,S)-2-{[2-(2-Aminoethoxy)ethoxy]methyl}-3-ethoxycarbonyl-5-methoxycarbonyl-6-methyl-4-(2-trifluoromethylphenyl)-1,4-dihydropyridine fumarate] is 8.12; for `COC(=O)C1=C(C)NC(COCCOCCN)=C(C(=O)OC(C)C)C1c1cccc(Cl)c1Cl` (racemic) [EXAMPLE 25, (4R,S)-2-{[2-(2-Aminoethoxy)ethoxy]methyl}-4-(2,3-dichlorophenyl)-3-isopropoxycarbonyl-5-methoxycarbonyl-6-methyl-1,4-dihydropyridine fumarate] it is 7.89; for `CCOC(=O)C1=C(COCCOCCNC(=O)C(F)(F)F)NC(C)=C(C(=O)OC)C1c1c(F)c(F)c(F)c(F)c1F` (racemic) [EXAMPLE 21, (4R,S)-2-[{2-[2-(N-Trifluoroacetylamino)ethoxy]-ethoxy}methyl]-3-ethoxycarbonyl-5-methoxycarbonyl-6-methyl-4-pentafluorophenyl-1,4-dihydropyridine] it is 7.17.
`CCCNCCOCCOCC1=C(C(=O)OCC)C(c2c(F)c(F)c(F)c(F)c2F)C(C(=O)OC)=C(C)N1` (racemic) [EXAMPLE 34, (4R,S)-3-Ethoxycarbonyl-5-methoxycarbonyl-6-methyl-4-pentafluorophenyl-2-[{2-[2-(N-propylamino)ethoxy]ethoxy}-methyl]-1,4-dihydropyridine fumarate] showed a pIC50 of 8.96.
`CCOC(=O)C1=C(COCCOCCN)NC(C)=C(C(=O)OC)C1c1cc(Cl)cc(Cl)c1Cl` (racemic) [EXAMPLE 31, (4R,S)-2-{[2-(2-Aminoethoxy)ethoxy]methyl}-3-ethoxycarbonyl-5-methoxycarbonyl-6-methyl-4-(2,3,5-trichlorophenyl)-1,4-dihydropyridine fumarate]: the negative-log IC50 (pIC50) is 6.77.
As to `COC(=O)C1=C(C)NC(COCCOCCN)=C(C(=O)OC(C)C)C1c1cccc(C(F)(F)F)c1Cl` (racemic) [EXAMPLE 35, (4R,S)-2-{[2-(2-Aminoethoxy)ethoxy]methyl}-4-(2-chloro-3-trifluoromethylphenyl)-3-isopropoxycarbonyl-5-methoxycarbonyl-6-methyl-1,4-dihydropyridine tartrate], the negative-log IC50 (pIC50) was 7.68.
The figure for `COC(=O)C1=C(C)NC(COCCOCCN)=C(C(=O)OCC(C2CC2)C2CC2)C1c1ccccc1Cl` (racemic) [EXAMPLE 4, (4R,S)-2-{[2-(2-Aminoethoxy)ethoxy]methyl}-4-(2-chlorophenyl)-3-(2,2-dicyclopropylethoxycarbonyl)-5-methoxycarbonyl-6-methyl-1,4-dihydropyridine fumarate] is 6.52; for `COC(=O)C1=C(C)NC(COCCOCCN)=C(C(=O)OC/C=C/C(C2CC2)C2CC2)C1c1cccc(Cl)c1Cl` [EXAMPLE 29, (4R,S)-2-{[2-(2-Aminoethoxy)ethoxy]methyl}-4-(2,3-dichlorophenyl)-3-{[(E)-4,4-dicyclopropyl-2-butene]-oxycarbonyl}-5-methoxycarbonyl-6-methyl-1,4-dihydropyridine tartrate] it is 7.12.
For `CCOC(=O)C1=C(CCCCCN)NC(C)=C(C(=O)OC)C1c1ccccc1Cl` (racemic) [EXAMPLE 14, (4R,S)-2-(5-Aminopentyl)-4-(2-chlorphenyl)-3-ethoxycarbonyl-5-methoxycarbonyl-6-methyl-1,4-dihydropyridine citrate] the value was 7.40; for `COC(=O)C1=C(C)NC(COCCOCCN)=C(C(=O)OCCCC(C2CC2)C2CC2)C1c1cccc(C(F)(F)F)c1Cl` (racemic) [EXAMPLE 36, (4R,S)-2-{[2-(2-Aminoethoxy)ethoxy]methyl}-4-(2-chloro-3-trifluoromethylphenyl)-3-(4,4-dicyclopropylbutyloxycarbonyl)-5-methoxycarbonyl-6-methyl-1,4-dihydropyridine fumarate], 6.33.
The figure for `CCOC(=O)C1=C(C)NC(COCCOCCN)=C(C(=O)OCC)C1c1c(F)c(F)c(F)c(F)c1F` (racemic) [EXAMPLE 15, (4R,S)-2-{[2-(2-Aminoethoxy)ethoxy]methyl}-3,5-diethoxycarbonyl-6-methyl-4-pentafluorophenyl-1,4-dihydropyridine] is 6.92.
The compound `CCOC(=O)C1=C(COCCOCCN)NC(C)=C(C(=O)OC)C1c1c(Cl)ccc(Cl)c1Cl` (racemic) [EXAMPLE 32, (4R,S,)-2-{[2-(2-Aminoethoxy)ethoxy]methyl}-3-ethoxycarbonyl-5-methoxycarbonyl-6-methyl-4-(2,3,6-trichlorophenyl)-1,4-dihydropyridine fumarate] had a pIC50 of 7.49.
For `COC(=O)C1=C(C)NC(COCCOCCN)=C(C(=O)OC(C)C)C1c1c(F)c(F)c(F)c(F)c1F` (racemic) [EXAMPLE 26, (4R,S)-2-{[2-(2-Aminoethoxy)ethoxy]methyl}-3-isopropoxycarbonyl-5-methoxycarbonyl-6-methyl-4-pentafluorophenyl-1,4-dihydropyridine tartrate] the value was 6.51; for `CCOC(=O)C1=C(COCCOCCN)NC(C)=C(C(=O)OCC(C2CC2)C2CC2)C1c1ccccc1Cl` (racemic) [EXAMPLE 9, (4R,S)-2-{[2-(2-Aminoethoxy)ethoxy]methyl}-4-(2-chlorophenyl)-5-(2,2-dicyclopropylethoxycarbonyl)-3-ethoxycarbonyl-6-methyl-1,4-dihydropyridine fumarate], 5.52; for `CCCNCCOCCOCC1=C(C(=O)OCC)C(c2c(F)c(F)c(F)c(F)c2F)C(C(=O)OCC)=C(C)N1` (racemic) [EXAMPLE 16, (4R,S)-3,5-Diethoxycarbonyl-6-methyl-4-pentafluorophenyl-2-[{2-[2-(N-propylamino)ethoxy]ethoxy}methyl]-1,4-dihydropyridine oxalate], 7.21.
The figure for `CCOC(=O)C1=C(COCCOCCN)NC(C)=C(C(=O)OC)C1c1ccc(OC)c(OC)c1OC` (racemic) [EXAMPLE 3, (4R,S)-2-{[2-(2-Aminoethoxy)ethoxy]methyl}-3-ethoxycarbonyl-5-methoxycarbonyl-6-methyl-4-(2,3,4-trimethoxyphenyl)-1,4-dihydropyridine fumarate] is 6.00.
For `CCOC(=O)C1=C(COCCOCCN)NC(C)=C(C(=O)OC)C1c1cccc(SC)c1OC` (racemic) [EXAMPLE 22] the value was 7.70.
